Where two headings read alike, the source gives them in different places.
Legend:
[1] = Phase I clinical trial: pharmacokinetics after single and multiple oral administrations; type: in vivo, human; conditions: for AR / Cmax / AUC / AUC(0-inf) / AUC(0-t) / half-life: GM (%CV); for Cmax / Tmax / AUC / AUC(0-inf) / AUC(0-t) / half-life: human, plasma, oral; for Tmax: Median (min-max); for AUC: read-out: AUC0-τ
Text: The PK parameters for single-dose administration mainly include peak concentration (Cmax), time to peak concentration (Tmax), half-life (T1/2), systemic clearance (CL), volume of distribution (Vd), AUC0-t, and AUC0-∞. The PK parameters for multiple-dose administration mainly include the area under the steady-state plasma concentration-time curve (AUCss), steady-state peak plasma concentration (Cmax, ss), steady-state trough plasma concentration (Cmin, ss), and steady-state time to peak plasma concentration (Tmax, ss).
Approximately eight dose groups in total were set in the dose escalation phase, which were 5 (the starting dose), 10, 20, 40, 60, 80, 100, and 125 mg, respectively. Subjects in all the dose groups received a single dose on day 1 (D1), and the blood samples were collected for pharmacokinetic (PK) assay and tolerability observation. If no grade 2 or a higher-level adverse event related to the investigational drug occurred during the single-dose period (5 to 7 days) (if such events occurred, dose adjustments would be made based on the toxicity according to the protocol), the subject entered the multiple-dose period (i.e., treatment period) 5 to 7 days later (7 days after the first administration in the first dose group (i.e., starting the multiple-dose treatment on day 8), and the intervals for the subsequent dose groups were determined based on the obtained tolerability and PK data). After entering the multiple-dose period, the subjects in the first dose group were initially administered with the drug once daily (QD) (if the PK data for the single-dose period had been obtained, the administration frequency for the multiple-dose period could be determined based on the PK data). The administration frequency for the subjects in the subsequent dose groups after entering the multiple-dose period was determined based on the obtained PK and tolerability data. In this trial, the administration frequency for all the subjects could be adjusted throughout the trial based on the continuously acquired safety and PK data. The four lower dose groups (5 mg, 10 mg, 20 mg and 40 mg) used an accelerated titration design, with one subject enrolled in each dose group. If any grade 2 or a higher-level adverse event related to the investigational drug occurred, the "3+3" dose escalation method would be switched to. The 60 mg dose group and the subsequent dose groups followed a "3+3" dose escalation method, and the MTD was determined. After the evaluation of the 8th dose group, if the researcher and the sponsor agreed that a higher dose group might have better efficacy and manageable safety, then a higher dose could be explored (e.g., the 9th dose group and the 10th dose group, at 150 mg and 180 mg, respectively). During the dose escalation, if a dose group was confirmed to have a preliminary antitumor effect and manageable safety (e.g., no DLT occurred in 3 subjects or only 1 out of 6 subjects experienced DLT), the dose level could be expanded after a discussion and confirmation by the researcher and the sponsor.
All the subjects in the dose escalation phase and dose expansion phase of this research needed to undergo intensive blood collection for PK study of the compound A, and all the subjects needed to undergo a population PK study of the compound A.

[2] = test system: Ba/F3 (SLC34A2-ROS1 G2032R) cell line; assay: Anti-tumor effect in subcutaneous transplanted Ba/F3 (SLC34A2-ROS1 G2032R) model; type: in vivo, NOD-SCID mice; conditions: for average tumor volume: 21st day after administration
Text: Housing environment: SPF grade.
Environmental conditions of the housing room of the laboratory animals: All the laboratory animals were housed in individually ventilated cages with constant temperature and constant humidity. […] The animals were continuously provided with cobalt-60 irradiated complete pelleted mouse feed with unlimited free access. The animals drank tap water (used after being autoclaved), which was provided continuously from water bottles, allowing for free access. The cages for raising the mice were polysulfone mice cages, which were autoclaved before use, and measured 325 mm × 210 mm × 180 mm. The bedding was autoclaved corn cobs. Each cage contained 5 animals. The cage cards were marked with the IACUC approval number, experiment number, start time of the experiment, project leader, experimenters, source of the animals, group, and animal number. The laboratory animals were marked with ear tags or ear labels.
The Ba/F3 (SLC34A2-ROS1 G2032R) cells in the exponential growth phase were collected, resuspended in PBS to a suitable concentration, and then subcutaneously inoculated into nude mice for tumor formation.
Assay method: Female NOD/SCID mice were subcutaneously inoculated with 2×10^6 Ba/F3 (SLC34A2-ROS1 G2032R) cells on the right side to establish a subcutaneous tumor transplantation model. […] The mice were administered orally via gavage once daily. The efficacy was evaluated based on the relative tumor growth inhibition rate (TGI), and the safety was evaluated based on the changes in the body weight and mortality of the animals.
All the procedures, including drug administration, tumor measurement, weight measurement, etc., were performed in a biosafety cabinet or on a clean bench.
The relative tumor growth rate (T/C%) was the percentage value of the relative tumor volume between a treatment group and the control group at a certain time point, or the percentage value of the tumor weight between a treatment group and the control group. The calculation formula was: T/C% = TRTV / CRTV × 100% (TRTV: the average RTV of the treatment group; CRTV: the average RTV of the solvent control group; RTV = Vt / V0, wherein V0 is the tumor volume of the animal at the time of grouping, and Vt is the tumor volume of the animal after treatment); or T/C% = TTW / CTW × 100% (TTW: the average tumor weight at the end of the assay in the treatment group; CTW: the average tumor weight at the end of the assay in the solvent control group).
Statistical analysis: To compare the tumor volume on a given day across the different treatment groups, we first used the Bartlett's test to verify the assumption of homogeneity of variance among all the groups. When the p-value of the Bartlett's test was not less than 0.05, one-way ANOVA was used to test whether the means of all the groups were equal. If the p-value of the one-way ANOVA was less than 0.05, we would use the Tukey's HSD test for the pairwise comparisons between all the groups, or use the Dunnett's test for a pairwise comparison between each treatment group and the control group. When the p-value of the Bartlett's test was less than 0.05, the Kruskal-Wallis test was used to test whether the medians of all the groups were equal. […]

[3] = Multiple administrations, 40 mg
[4] = Multiple administrations, 60 mg
[5] = Multiple administrations, 80 mg
[6] = Multiple administrations, 100 mg
[7] = Multiple administrations, 125 mg

[2H]C([2H])([2H])n1nc2c(c1C#N)-c1cnc(N)c(c1)O[C@H](C)c1cc(F)ccc1C(=O)N(C)C2 [compound A, (10R)-7-amino-12-fluoro-2-(methyl-d3)-10,16-dimethyl-15-oxo-10,15,16,17-tetrahydro-2H-8,4-(metheno)pyrazolo[4,3-h][2,5,11]benzoxadiazacyclotetradecine-3-carbonitrile]
AR [1, 3]: 1.044(25 .1) [3]
AR [1, 4]: 0.913(44.1 ) [3]
AR [1, 5]: 1.256(45.9) [4]
AR [1, 6]: 0.732(6 6.4) [3]
AR [1, 7]: 0.606(36. 1) [3]
Cmax ([1]; 40 mg, Multiple administrations, 40 mg, read-out: Cmax, SS): 0.387 µg/mL
Tmax ([1]; 40 mg, Multiple administrations): 1 h
Cmax ([1]; 40 mg, Single administration, 40 mg, read-out: Cmax): 0.392 µg/mL
Tmax ([1]; 40 mg, Single administration): 0.98 h
Cmax ([1]; 60 mg, Multiple administrations, 60 mg, read-out: Cmax, SS): 0.644 µg/mL
Tmax ([1]; 60 mg, Multiple administrations): 0.533 h
Cmax ([1]; 60 mg, Single administration, 60 mg, read-out: Cmax): 0.875 µg/mL
Tmax ([1]; 60 mg, Single administration): 0.5 h
Cmax ([1]; 80 mg, Multiple administrations, 80 mg, read-out: Cmax, SS): 0.589 µg/mL
Tmax ([1]; 80 mg, Multiple administrations): 1.56 h
Cmax ([1]; 80 mg, Single administration, 80 mg, read-out: Cmax): 0.524 µg/mL
Tmax ([1]; 80 mg, Single administration): 0.7 h
Cmax ([1]; 100 mg, Multiple administrations, 100 mg, read-out: Cmax, SS): 0.798 µg/mL
Tmax ([1]; 100 mg, Multiple administrations): 1.97 h
Cmax ([1]; 100 mg, Single administration, 100 mg, read-out: Cmax): 0.774 µg/mL
Tmax ([1]; 100 mg, Single administration): 1.02 h
Cmax ([1]; 125 mg, Multiple administrations, 125 mg, read-out: Cmax, SS): 0.987 µg/mL
Tmax ([1]; 125 mg, Multiple administrations): 0.5 h
Cmax ([1]; 125 mg, Single administration, 125 mg, read-out: Cmax): 1.26 µg/mL
Tmax ([1]; 125 mg, Single administration): 1.02 h
AUC [1, 3]: 3.88 µg·h/mL
AUC [1, 4]: 5.44 µg·h/mL
AUC [1, 5]: 5.5 µg·h/mL
AUC [1, 6]: 7.02 µg·h/mL
AUC [1, 7]: 7.7 µg·h/mL
AUC(0-inf) ([1]; Single administration, 40 mg): 4.71 µg·h/mL
AUC(0-t) ([1]; Single administration, 40 mg): 4.44 µg·h/mL
half-life ([1]; Single administration, 40 mg): 27.8 h
AUC(0-inf) ([1]; Single administration, 60 mg): 12.2 µg·h/mL
AUC(0-t) ([1]; Single administration, 60 mg): 11.3 µg·h/mL
half-life ([1]; Single administration, 60 mg): 33.6 h
AUC(0-inf) ([1]; Single administration, 80 mg): 10.1 µg·h/mL
AUC(0-t) ([1]; Single administration, 80 mg): 9.13 µg·h/mL
half-life ([1]; Single administration, 80 mg): 34.2 h
AUC(0-inf) ([1]; Single administration, 100 mg): 14.6 µg·h/mL
AUC(0-t) ([1]; Single administration, 100 mg): 13.8 µg·h/mL
half-life ([1]; Single administration, 100 mg): 30.5 h
AUC(0-inf) ([1]; Single administration, 125 mg): 18.7 µg·h/mL
AUC(0-t) ([1]; Single administration, 125 mg): 17.8 µg·h/mL
half-life ([1]; Single administration, 125 mg): 29.2 h
average tumor volume ([2]; 1.5 mg/kg p.o. once daily): 1334.38 mm^3
average tumor volume ([2]; 5 mg/kg p.o. once daily): 305.46 mm^3
average tumor volume ([2]; 15 mg/kg p.o. once daily): 0 mm^3
tumor-bearing mice with tumor volume reduced to 0 ([2]; 15 mg/kg, end of the assay): 10/10
